Data taken from patent US10184137B2, “Method of producing isoprene monomer” (AJINOMOTO CO., INC., priority 2014, dated 2019).
Several values for one entry are separate records, joined by “and”; a condition that tells them apart may be missing. Identical values can stand only once. Counter-ions that a name gives are not always drawn.

Legend:
[1] = target: Nitrosopumilus maritimus mevalonate kinase (nmr), wild type, SEQ ID NO:9, N-terminal His-tag (Nitrosopumilus maritimus, UniProt A9A427); assay: Inhibition of nmr-derived mevalonate kinase by DMAPP, GPP, FPP or DPM; assay type: biochemical
Description: (§1) Km value was calculated by Lineweaver-Burk plot.
(§2) Since GPP and FPP solutions contain methanol, methanol which was needed to keep the same methanol level at the addition to the reaction system was added to the reaction solution, which was designated as control.
(§3) Effect of 1 mM diphosphomevalonate (DPM) on each enzyme was also studied.

[2] = target: T1, Methanosaeta concilii mevalonate kinase (mcl), wild type, SEQ ID NO:6, N-terminal His-tag (Methanothrix soehngenii, UniProt F4BZB3); assay: Inhibition of mcl-derived mevalonate kinase by DMAPP, GPP, FPP or DPM; assay type: biochemical
T1 sequence (F4BZB3 1-317): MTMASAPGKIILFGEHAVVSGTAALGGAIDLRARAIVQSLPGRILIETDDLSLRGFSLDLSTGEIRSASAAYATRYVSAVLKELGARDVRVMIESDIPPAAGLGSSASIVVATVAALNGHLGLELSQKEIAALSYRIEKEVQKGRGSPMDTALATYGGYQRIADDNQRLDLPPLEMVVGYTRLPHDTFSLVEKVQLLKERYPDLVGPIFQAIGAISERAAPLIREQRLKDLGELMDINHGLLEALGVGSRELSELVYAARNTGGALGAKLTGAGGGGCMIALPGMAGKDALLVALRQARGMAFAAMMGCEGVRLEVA
Description: as §1, §2, §3

[3] = target: Methanocella paludicola mevalonate kinase (mpd), wild type, SEQ ID NO:1, N-terminal His-tag (Methanocella paludicola, UniProt D1YZ39); assay: Inhibition of mpd-derived mevalonate kinase by DMAPP, GPP, FPP or DPM; assay type: biochemical
Description: as §1, §2, §3

[4] = target: T2, Methanosarcina mazei mevalonate kinase (mma), wild type, SEQ ID NO:12, N-terminal His-tag (Methanosarcina mazei, UniProt Q8PW39); assay: Inhibition of mma-derived mevalonate kinase by DMAPP, GPP, FPP or DPM; assay type: biochemical
T2 sequence (Q8PW39 1-301): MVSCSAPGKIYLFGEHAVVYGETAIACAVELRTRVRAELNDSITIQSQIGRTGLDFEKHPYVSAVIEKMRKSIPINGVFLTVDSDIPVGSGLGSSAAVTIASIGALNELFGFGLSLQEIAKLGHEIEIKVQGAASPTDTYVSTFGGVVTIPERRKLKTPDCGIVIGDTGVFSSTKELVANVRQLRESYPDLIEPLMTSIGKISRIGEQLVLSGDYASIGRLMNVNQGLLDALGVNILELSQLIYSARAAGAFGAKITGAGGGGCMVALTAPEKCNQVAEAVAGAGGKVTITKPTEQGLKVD
Description: as §1, §2, §3

[5] = target: Corynebacterium variabile mevalonate kinase (cva), wild type, SEQ ID NO:3, N-terminal His-tag (Corynebacterium variabile, UniProt A0A0X2NLH5); assay: Inhibition of cva-derived mevalonate kinase by DMAPP, GPP, FPP or DPM; assay type: biochemical
Description: as §1, §2, §3

[6] = target: T1, Methanosaeta concilii mevalonate kinase (mcl), wild type, SEQ ID NO:6, N-terminal His-tag; assay: biochemical
[7] = system: mevalonate kinase; assay: Expression analysis and activity confirmation of His-tagged mevalonate kinases from pET-21a(+) and pET-28b(+); assay type: biochemical; details: His-spinTrap eluate after dialysis, 10 μl enzyme solution
Description: Each obtained plasmid was used for transformation of E. coli BL21(DE3). […] When OD600 reached approximately 0.5, IPTG was added to the solution to final concentration of 1 mM. It was then cultured overnight at 20° C. Harvested cells were suspended in the buffer solution consisting of 50 mM sodium phosphate, 0.3 M NaCl and 20 mM Imidazol. Then the cells were disrupted with an ultrasonic disruptor (TOMY: UD-201, output level=3.5). After centrifugation (20,000×g, 20 min), disrupted cells were adsorbed to His-spinTrap (GE Healthcare). After washing with the same buffer solution, protein was eluted with the buffer solution consisting of 50 mM sodium phosphate, 0.3 M NaCl and 0.5 M imidazole (pH7.5). Eluate was dialyzed overnight at 4° C. with the external solution composed of 20 mM Tris-HCl (pH7.5) and 50 mM NaCl. Then, enzyme activity of each eluate in the internal dialysis solution was measured.
Activity of the internal dialysate (about 0.2 ml each) was measured with the 10 μl of enzyme solution (Table 8). Enzyme expression level was compared on activity basis between pET-21a(+) and pET-28b(+). […] It is inferred that expression level is higher in pET-28b(+). Therefore, purified enzyme expressed in pET-28b(+) was used in the further examinations.
Values were presented by decrease in absorbance per unit time per 10 μl in the enzyme reaction measurement system (dABS/min/10 μl).
(§4) Decrease in absorbance at 340 nm at 30° C. was measured to determine the enzyme activity. JASCO Corporation's spectrophotometer (V-650) was used in this study. Millimolar extinction coefficient of NADH used in this study was 6.22 mM^−1 cm^−1. […] Km value was calculated by Lineweaver-Burk plot.

[8] = system: mevalonate kinase; assay: Inhibition of each mevalonate kinase by DMAPP, GPP, FPP or DPM; assay type: biochemical
Description: as §2
Respective effect of the added 5 mM DMAPP, 0.1 mM GPP, and 0.1 mM FPP on the activity of each enzyme was measured. […] Contrarily, mcl-derived enzyme was activated by 5 mM DMAPP and its activity increased by 20% from that of the control.
Activity when 10 μl of each enzyme was added to 1 ml of the reaction system was represented by dABS/min
as §3

[9] = system: mevalonate kinase; assay: Examination of product inhibition on each mevalonate kinase (absorbance at 386 nm, PMK addition); assay type: biochemical; details: in words
Description: When decrease in absorbance stopped, purified PMK was added to measure further decrease in absorbance at 386 nm.
FIG. 18 presents the SDS-PAGE profile of the purified PMK. […] Then, absorbance decreased further and finally absorbance at 386 nm decreased to 0.3 in all reaction systems. Therefore, it is inferred that mevalonate is converted into diphosphomevalonate via phosphomevalonate by adding PMK to each MVK.

[10] = system: mevalonate kinase; assay: Measurement of activity and Km value of purified mevalonate kinase (PK/LDH coupled, 340 nm); assay type: biochemical; details: 10 μl enzyme in 1 ml, replicate values
Description: Each obtained plasmid was used for transformation of E. coli BL21(DE3). […] When OD600 reached approximately 0.5, 0.1 mM IPTG (for cva, mma, nmr, and sce) or 1 mM (for mcl and mpd) of IPTG was added, and then the mixture was kept at 20° C. overnight to induce the target protein. Harvested cells were suspended in buffer solution A (50 mM sodium phosphate, 0.3 M NaCl and 20 mM Imidazol), and then the cells were disrupted with an ultrasonic disruptor (TOMY: UD-201). […] After centrifugation (28,000×g, 30 min), the supernatant was adsorbed onto His-Trap HP (GE Healthcare) to elute the target protein by linear concentration gradient of Imidazol (final concentration 0.5 M). Obtained protein was dialyzed by using an external solution composed of 20 mM Tris-HCl (pH 8.0) containing 1 mM DTT and 50 mM NaCl. Dialyzed protein was designated as purified enzyme. Protein quantity was measured with Bio-RAD protein assay kit and BSA standard condition.
as §4
Measured activity of each enzyme (JABS/min) was presented on Table 9 for the calculation of apparent Km value (Km app.) of each enzyme. Table 10 presents Km app., Vmax, molecular weight of the enzyme protein, protein concentration in the enzyme solution and calculated kcat.
Activity was indicated by dABS/min when 10 μl of each enzyme was added to 1 ml of reaction solution.

[11] = substrate: Nc1ncnc2c1ncn2[C@@H]1O[C@H](COP(=O)(O)OP(=O)(O)OP(=O)(O)O)[C@@H](O)[C@H]1O; assay: purified protein, by the assay type; details: other: mpd, 5 mM potassium mevalonate, pH 7.6, 30° C., Lineweaver-Burk plot
Description: Each obtained plasmid was used for transformation of E. coli BL21(DE3). […] When OD600 reached approximately 0.5, 0.1 mM IPTG (for cva, mma, nmr, and sce) or 1 mM (for mcl and mpd) of IPTG was added, and then the mixture was kept at 20° C. overnight to induce the target protein. […] After centrifugation (28,000×g, 30 min), the supernatant was adsorbed onto His-Trap HP (GE Healthcare) to elute the target protein by linear concentration gradient of Imidazol (final concentration 0.5 M). Obtained protein was dialyzed by using an external solution composed of 20 mM Tris-HCl (pH 8.0) containing 1 mM DTT and 50 mM NaCl. Dialyzed protein was designated as purified enzyme. Protein quantity was measured with Bio-RAD protein assay kit and BSA standard condition.
Decrease in absorbance at 340 nm at 30° C. was measured to determine the enzyme activity. JASCO Corporation's spectrophotometer (V-650) was used in this study. […] Km value was calculated by Lineweaver-Burk plot.

Chain of Corynebacterium variabile mevalonate kinase (cva), wild type, SEQ ID NO:3, N-terminal His-tag (A0A0X2NLH5 entry or part of it): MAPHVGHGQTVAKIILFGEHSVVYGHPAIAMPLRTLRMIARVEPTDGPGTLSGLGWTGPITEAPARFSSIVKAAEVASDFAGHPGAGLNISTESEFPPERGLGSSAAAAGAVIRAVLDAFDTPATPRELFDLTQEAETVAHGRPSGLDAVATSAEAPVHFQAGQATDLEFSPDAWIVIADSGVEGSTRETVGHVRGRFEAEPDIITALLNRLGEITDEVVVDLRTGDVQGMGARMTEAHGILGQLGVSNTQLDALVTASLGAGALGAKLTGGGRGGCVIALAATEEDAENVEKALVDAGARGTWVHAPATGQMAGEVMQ

CC(C)=CCC/C(C)=C/COP(=O)(O)OP(=O)(O)O [GPP, geranyl phyrophosphate ammonium salt]
Enzyme activity with 0.1 mM GPP ([1]; 0.1 mM GPP, control 0.2438): 0.2427 dABS/min | Enzyme activity with 0.1 mM GPP ([2]; mcl, 0.1 mM GPP, control 0.1482): 0.1538 dABS/min | Enzyme activity with 0.1 mM GPP ([3]; 0.1 mM GPP, control 0.15734): 0.1589 dABS/min | Enzyme activity with 0.1 mM GPP ([4]; 0.1 mM GPP, control 0.21): 0.2009 dABS/min | Enzyme activity with 0.1 mM GPP ([5]; 0.1 mM GPP, control 0.08338): 0.07532 dABS/min

C=C(C)CCOP(=O)(O)OP(=O)(O)O.N.N.N [IPP, Isopentenyl pyrophosphate tri-ammonium salt]
Enzyme activity with 33.6 μM IPP ([6]; mcl, 33.6 μM IPP, control (MeOH) 0.15939): 0.158 dABS/min | Enzyme activity with 168 μM IPP ([6]; mcl, 168 μM IPP, control (MeOH) 0.15939): 0.1606 dABS/min

CC(C)=CCOP(=O)(O)OP(=O)(O)O.N.N.N [DMAPP, Dimethylallyl diphosphate ammonium salt]
Enzyme activity with 5 mM DMAPP ([1]; 5 mM DMAPP, control 0.2438): 0.231 dABS/min | Enzyme activity with 5 mM DMAPP ([2]; mcl, 5 mM DMAPP, control 0.1482): 0.1806 dABS/min | activation at 5000 µM ([2]; read-out: Increase of activity from that of the control): 20% | Enzyme activity with 33.6 μM DMAPP ([6]; mcl, 33.6 μM DMAPP, control (H2O) 0.15403): 0.1527 dABS/min | Enzyme activity with 168 μM DMAPP ([6]; mcl, 168 μM DMAPP, control (H2O) 0.15403): 0.1552 dABS/min | activation at 5000 µM ([6]; read-out: Increase of relative activity): 20% | Enzyme activity with 5 mM DMAPP ([3]; 5 mM DMAPP, control 0.15734): 0.1528 dABS/min | Enzyme activity with 5 mM DMAPP ([4]; 5 mM DMAPP, control 0.21): 0.1904 dABS/min | Enzyme activity with 5 mM DMAPP ([5]; 5 mM DMAPP, control 0.08338): 0.0786 dABS/min

CC(C)=CCC/C(C)=C/CC/C(C)=C/COP(=O)(O)OP(=O)(O)O [FPP, farnesyl pyrophosphate ammonium salt]
Inhibition by FPP ([1]; 0.1 mM FPP): no other enzymes were inhibited strongly | Enzyme activity with 0.1 mM FPP ([1]; 0.1 mM FPP, control 0.2438): 0.224 dABS/min | Inhibition by FPP ([2]; mcl, 0.1 mM FPP): no other enzymes were inhibited strongly | Enzyme activity with 0.1 mM FPP ([2]; mcl, 0.1 mM FPP, control 0.1482): 0.1562 dABS/min | Inhibition by FPP ([3]; 0.1 mM FPP): no other enzymes were inhibited strongly | Enzyme activity with 0.1 mM FPP ([3]; 0.1 mM FPP, control 0.15734): 0.1594 dABS/min | Inhibition by FPP ([4]; 0.1 mM FPP): no other enzymes were inhibited strongly | Enzyme activity with 0.1 mM FPP ([4]; 0.1 mM FPP, control 0.21): 0.2059 dABS/min | Inhibition by FPP ([5]; 0.1 mM FPP): inhibited | Enzyme activity with 0.1 mM FPP ([5]; 0.1 mM FPP, control 0.08338): 0.04775 dABS/min

B1: nmr: mevalonate kinase derived from Nitrosopumilus maritimus (SEQ ID NO:9), His-tagged purified enzyme (protein, listed as Nitrosopumilus maritimus)
chain: MKSKASAPGKVILFGEHFVVYGVKAILCAINKRIAVTAEKIDERKISIKSNIGHLELEPNKPISEINSPLKPFYYLANKIIQDKNFGIKIDVESEIPLGVGLGSSSACCVAGAAAISNLFENNSKEEILKLAIEAEKTIFQNTSGADCTVCTFGGLMEYDKENGFSKIESEPNFHLVIANSNVEHSTESVVAGVRKFKKNNEAEFSKLCKDESHLIENVLELLKENNIRELGERVIKNQEYLERIGISNAKLREMIQTGQNSSFGAKITGAGGGGCIFALTDESNLENTIKEFKEKNHECFSVKIDFKGLDTF
modifications: His-tag
enzyme activity, pET21 system (C terminal Tag) [7]: 0.137 dABS/min/10 μl | enzyme activity, pET28 system (N terminal Tag) [7]: 0.247 dABS/min/10 μl | enzyme activity, Control ([8]; Table 11 control without terpenyl diphosphate (methanol added)): 0.2438 dABS/min | enzyme activity, Control ([8]; Table 12 control without DPM): 0.2064 dABS/min | course of decrease in absorbance at 386 nm until PMK addition ([9]; 1 mM mevalonate as substrate): decrease in the rate of reaction associated with the progression of reaction | DPM-induced inhibition [9]: not observed | dABS/min at ATP 0.04 mM ([10]; ATP 0.04 mM, potassium mevalonate 5 mM): 0.007781 dABS/min and 0.00767 dABS/min and 0.007932 dABS/min | dABS/min at ATP 0.2 mM ([10]; ATP 0.2 mM, potassium mevalonate 5 mM): 0.03637 dABS/min and 0.03629 dABS/min and 0.03625 dABS/min | dABS/min at ATP 1 mM ([10]; ATP 1 mM, potassium mevalonate 5 mM): 0.1089 dABS/min and 0.1084 dABS/min and 0.1085 dABS/min | dABS/min at mev 0.04 mM ([10]; potassium mevalonate 0.04 mM, ATP 5 mM): 0.01691 dABS/min and 0.01687 dABS/min and 0.0168 dABS/min | dABS/min at mev 0.2 mM ([10]; potassium mevalonate 0.2 mM, ATP 5 mM): 0.06788 dABS/min and 0.06784 dABS/min and 0.06777 dABS/min | dABS/min at mev 1 mM ([10]; potassium mevalonate 1 mM, ATP 5 mM): 0.1521 dABS/min and 0.1522 dABS/min and 0.153 dABS/min

B2: Methanocella paludicola mevalonate kinase (mpd), wild type, SEQ ID NO:1, N-terminal His-tag (Methanocella paludicola SANAE) (protein)
chain: MTMCSAPGKVFLFGEHAVVYGKRAIACAIDLRTTVEVSRKSRGVHIHSAFKDEPDKNLYIKTAVKRMQKCADIRNVNIAVSSRIPVASGLGSSAAVTVATIGALNEEFSAGLSKKDIAYMAYQTELEVQGAASPTDTFVSTMGGTVVVPDMRTLPPITCGIVVGHTGISKSTSRMVSRVRTLKEKYPDVIDGIMDSIGDISARGEDLIKQNDYRSIGELMNVNQGLLDALGITIPELSLQIYAARQHGAYGAKITGAGGGGCMVAICDDKNCKEIATAIGRSYGDSFISKPTAEGIFIQ
Km [11]: 119 ± 2.1 µM
